Assay results taken from PubChem BioAssay AID2060620 (Molecular Pharmacology Branch, DTP, NCI, 2025).

System: 328373-195-R-J1-PDC complex spheroids, viability % test/control
Assay: Anticancer human tumor 328373-195-R-J1-PDC patient-derived head and neck squamous carcinoma cell line growth inhibition [CLK]
Conditions: for IC50: curve of first compound; for viability, T/C: stronger effect = lower value; active = viability on the fitted dose curve at most 10% of control; inactive = the rest
Outline: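 Patient-derived tumor cells grown as complex spheroids with HUVEC endothelial cells and mesenchymal stem cells, treated with drug combinations. Concentrations descend in half-log steps from near clinical Cmax, or from 10 microM if Cmax unknown.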

[1] = second compound 0.0316 µM, first compound 0.0316 µM
[2] = second compound 0.0316 µM, first compound 0.1 µM
[3] = second compound 0.0316 µM, first compound 0.316 µM
[4] = second compound 0.0316 µM, first compound 1 µM
[5] = second compound 0.0316 µM, first compound 3.16 µM
[6] = second compound 0.0316 µM, first compound 10 µM
[7] = second compound 0.1 µM, first compound 0.0316 µM
[8] = second compound 0.1 µM, first compound 0.1 µM
[9] = second compound 0.1 µM, first compound 0.316 µM
[10] = second compound 0.1 µM, first compound 1 µM
[11] = second compound 0.1 µM, first compound 3.16 µM
[12] = second compound 0.1 µM, first compound 10 µM
[13] = second compound 0.316 µM, first compound 0.0316 µM
[14] = second compound 0.316 µM, first compound 0.1 µM
[15] = second compound 0.316 µM, first compound 0.316 µM
[16] = second compound 0.316 µM, first compound 1 µM
[17] = second compound 0.316 µM, first compound 3.16 µM
[18] = second compound 0.316 µM, first compound 10 µM
[19] = second compound 1 µM, first compound 0.0316 µM
[20] = second compound 1 µM, first compound 0.1 µM
[21] = second compound 1 µM, first compound 0.316 µM
[22] = second compound 1 µM, first compound 1 µM
[23] = second compound 1 µM, first compound 3.16 µM
[24] = second compound 1 µM, first compound 10 µM
[25] = second compound 3.16 µM, first compound 0.0316 µM
[26] = second compound 3.16 µM, first compound 0.1 µM
[27] = second compound 3.16 µM, first compound 0.316 µM
[28] = second compound 3.16 µM, first compound 1 µM
[29] = second compound 3.16 µM, first compound 3.16 µM
[30] = second compound 3.16 µM, first compound 10 µM
[31] = second compound 10 µM, first compound 0.0316 µM
[32] = second compound 10 µM, first compound 0.1 µM
[33] = second compound 10 µM, first compound 0.316 µM
[34] = second compound 10 µM, first compound 1 µM
[35] = second compound 10 µM, first compound 3.16 µM
[36] = second compound 10 µM, first compound 10 µM
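Also: spheroids exposed to the agents for 7 days.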

CC(=O)O[C@H]1C(=O)[C@@]2(C)[C@H]([C@H](OC(=O)c3ccccc3)[C@]3(O)C[C@H](OC(=O)[C@H](O)[C@@H](NC(=O)c4ccccc4)c4ccccc4)C(C)=C1C3(C)C)[C@]1(OC(C)=O)CO[C@@H]1C[C@@H]2O + CNC(=O)c1ccc(Nc2nc(OC3CCCC3)c3c(-c4ccc5nc(C)oc5c4)c[nH]c3n2)c(OC)c1
< 31.6 nM: IC50 (second compound 0.0316 µM) | IC50 (second compound 0.1 µM) | IC50 (second compound 0.316 µM) | IC50 (second compound 1 µM) | IC50 (second compound 3.16 µM) | IC50 (second compound 10 µM)
inactive: viability, T/C [1] 11.7% | viability, T/C [2] 7.56% | viability, T/C [3] 14% | viability, T/C [4] 13.7% | viability, T/C [5] 12.7% | viability, T/C [6] 22% | viability, T/C [7] 20.2% | viability, T/C [8] 22.9% | viability, T/C [9] 18.8% | viability, T/C [10] 26.1% | viability, T/C [11] 25.2% | viability, T/C [12] 29.1% | viability, T/C [13] 21.1% | viability, T/C [14] 23.5% | viability, T/C [15] 24.7% | viability, T/C [16] 29.3% | viability, T/C [17] 32.1% | viability, T/C [18] 29.8% | viability, T/C [19] 21% | viability, T/C [20] 24% | viability, T/C [21] 27% | viability, T/C [22] 30.8% | viability, T/C [23] 36.7% | viability, T/C [24] 28% | viability, T/C [25] 22.2% | viability, T/C [26] 27.2% | viability, T/C [27] 29.8% | viability, T/C [28] 32.7% | viability, T/C [29] 37.1% | viability, T/C [30] 33.9% | viability, T/C [31] 20% | viability, T/C [32] 28.6% | viability, T/C [33] 30.5% | viability, T/C [34] 36.7% | viability, T/C [35] 42.3% | viability, T/C [36] 36%

CCc1c2c(nc3ccc(O)cc13)-c1cc3c(c(=O)n1C2)COC(=O)[C@]3(O)CC + CNC(=O)c1ccc(Nc2nc(OC3CCCC3)c3c(-c4ccc5nc(C)oc5c4)c[nH]c3n2)c(OC)c1
< 3.16 nM: IC50 (second compound 0.0316 µM) | IC50 (second compound 0.1 µM) | IC50 (second compound 0.316 µM) | IC50 (second compound 1 µM) | IC50 (second compound 3.16 µM) | IC50 (second compound 10 µM)
inactive: viability, T/C (second compound 10 µM, first compound 0.00316 µM) 10.2%
active: viability, T/C (second compound 0.0316 µM, first compound 0.00316 µM) 7.71% | viability, T/C (second compound 0.0316 µM, first compound 0.01 µM) 1.63% | viability, T/C [1] 2.84% | viability, T/C [2] 0.67% | viability, T/C [3] 0.38% | viability, T/C [4] 0.09% | viability, T/C (second compound 0.1 µM, first compound 0.00316 µM) 7.73% | viability, T/C (second compound 0.1 µM, first compound 0.01 µM) 1.04% | viability, T/C [7] 2.54% | viability, T/C [8] 0.41% | viability, T/C [9] 1.87% | viability, T/C [10] 2.57% | viability, T/C (second compound 0.316 µM, first compound 0.00316 µM) 7.15% | viability, T/C (second compound 0.316 µM, first compound 0.01 µM) 3.14% | viability, T/C [13] 1.9% | viability, T/C [14] 0.39% | viability, T/C [15] 1.85% | viability, T/C [16] 0.68% | viability, T/C (second compound 1 µM, first compound 0.00316 µM) 5.68% | viability, T/C (second compound 1 µM, first compound 0.01 µM) 1.49% | viability, T/C [19] 1.06% | viability, T/C [20] 0.86% | viability, T/C [21] 0.2% | viability, T/C [22] 1.91% | viability, T/C (second compound 3.16 µM, first compound 0.00316 µM) 9.03% | viability, T/C (second compound 3.16 µM, first compound 0.01 µM) 2.69% | viability, T/C [25] 1.66% | viability, T/C [26] 0.35% | viability, T/C [27] 1.13% | viability, T/C [28] 1.82% | viability, T/C (second compound 10 µM, first compound 0.01 µM) 1.94% | viability, T/C [31] 1.92% | viability, T/C [32] 0.95% | viability, T/C [33] 2.93% | viability, T/C [34] 1.05%

COc1cccc2c1C(=O)c1c(O)c3c(c(O)c1C2=O)CC(O)(C(=O)CO)CC3OC1CC(N)C(O)C(C)O1 (stereo not given) + CNC(=O)c1ccc(Nc2nc(OC3CCCC3)c3c(-c4ccc5nc(C)oc5c4)c[nH]c3n2)c(OC)c1
< 31.6 nM: IC50 (second compound 0.0316 µM) | IC50 (second compound 0.1 µM) | IC50 (second compound 0.316 µM) | IC50 (second compound 1 µM) | IC50 (second compound 3.16 µM) | IC50 (second compound 10 µM)
active: viability, T/C [2] 4.2% | viability, T/C [3] 0.6% | viability, T/C [4] 0.17% | viability, T/C [5] 0.12% | viability, T/C [6] 3.04% | viability, T/C [7] 8.2% | viability, T/C [8] 3.67% | viability, T/C [9] 0.55% | viability, T/C [10] 0.13% | viability, T/C [11] 0.09% | viability, T/C [12] 4.34% | viability, T/C [13] 8.9% | viability, T/C [14] 3.98% | viability, T/C [15] 0.5% | viability, T/C [16] 0.07% | viability, T/C [17] 0.07% | viability, T/C [18] 1.96% | viability, T/C [19] 8.51% | viability, T/C [20] 2.74% | viability, T/C [21] 1.07% | viability, T/C [22] 0.06% | viability, T/C [23] 0.07% | viability, T/C [24] 4.59% | viability, T/C [26] 3.82% | viability, T/C [27] 0.22% | viability, T/C [28] 0.06% | viability, T/C [29] 0.93% | viability, T/C [30] 2.69% | viability, T/C [32] 1.9% | viability, T/C [33] 0.16% | viability, T/C [34] 0.1% | viability, T/C [35] 0.6% | viability, T/C [36] 2.6%
inactive: viability, T/C [1] 12.6% | viability, T/C [25] 11.5% | viability, T/C [31] 12.1%

Nc1ccn(C2OC(CO)C(O)C2(F)F)c(=O)n1 (stereo not given) + CNC(=O)c1ccc(Nc2nc(OC3CCCC3)c3c(-c4ccc5nc(C)oc5c4)c[nH]c3n2)c(OC)c1
< 31.6 nM: IC50 (second compound 0.0316 µM) | IC50 (second compound 0.1 µM) | IC50 (second compound 0.316 µM) | IC50 (second compound 1 µM) | IC50 (second compound 3.16 µM) | IC50 (second compound 10 µM)
active: viability, T/C [1] 2.44% | viability, T/C [2] 1.85% | viability, T/C [3] 3.64% | viability, T/C [4] 2.74% | viability, T/C [5] 2.63% | viability, T/C [6] 1.95% | viability, T/C [7] 3.4% | viability, T/C [8] 1.85% | viability, T/C [9] 2.02% | viability, T/C [10] 2.08% | viability, T/C [11] 2.83% | viability, T/C [12] 4.18% | viability, T/C [13] 3.23% | viability, T/C [14] 2.68% | viability, T/C [15] 4.06% | viability, T/C [16] 2.46% | viability, T/C [17] 2.95% | viability, T/C [18] 1.84% | viability, T/C [19] 4.36% | viability, T/C [20] 1.86% | viability, T/C [21] 1.79% | viability, T/C [22] 2.35% | viability, T/C [23] 3.18% | viability, T/C [24] 3.19% | viability, T/C [25] 5.21% | viability, T/C [26] 3.42% | viability, T/C [27] 4.01% | viability, T/C [28] 2.03% | viability, T/C [29] 2.01% | viability, T/C [30] 1.88% | viability, T/C [31] 6.95% | viability, T/C [32] 3.09% | viability, T/C [33] 3.18% | viability, T/C [34] 2.49% | viability, T/C [35] 2.14% | viability, T/C [36] 1.82%

O=c1[nH]cc(F)c(=O)[nH]1 + CNC(=O)c1ccc(Nc2nc(OC3CCCC3)c3c(-c4ccc5nc(C)oc5c4)c[nH]c3n2)c(OC)c1
inactive: viability, T/C [1] 37% | viability, T/C [2] 18.3% | viability, T/C [25] 11% | viability, T/C [31] 12.2%
active: viability, T/C [3] 8.48% | viability, T/C [4] 5.66% | viability, T/C [5] 6.31% | viability, T/C [6] 11.2% | viability, T/C [7] 8.64% | viability, T/C [8] 5.34% | viability, T/C [9] 5% | viability, T/C [10] 3.23% | viability, T/C [11] 2.62% | viability, T/C [12] 7.23% | viability, T/C [13] 7.44% | viability, T/C [14] 6.09% | viability, T/C [15] 4.45% | viability, T/C [16] 4.15% | viability, T/C [17] 4.13% | viability, T/C [18] 6.8% | viability, T/C [19] 8.18% | viability, T/C [20] 7.54% | viability, T/C [21] 3.88% | viability, T/C [22] 2.98% | viability, T/C [23] 2.83% | viability, T/C [24] 4.21% | viability, T/C [26] 7.15% | viability, T/C [27] 3.65% | viability, T/C [28] 2.93% | viability, T/C [29] 3.84% | viability, T/C [30] 4.43% | viability, T/C [32] 8.27% | viability, T/C [33] 4.41% | viability, T/C [34] 3.11% | viability, T/C [35] 3.46% | viability, T/C [36] 1.56%
< 31.6 nM: IC50 (second compound 0.0316 µM) | IC50 (second compound 0.1 µM) | IC50 (second compound 0.316 µM) | IC50 (second compound 1 µM) | IC50 (second compound 3.16 µM) | IC50 (second compound 10 µM)
